Values after ≈ are worked out from the molar mass of the structure shown. Where two headings read alike, the source gives them in different places.
Assays:
ATCC 6538P = experiment: Antibacterial in vitro activity in comparison with azithromycin (Table 3); format: cell-based, Staphilococcus aureus
Source text: (§1) In Table 3 there are represented in vitro tests of 6-O-methyl- (Ii), 6,11-di-O-methyl- (Ij), 11-O-methyl- (Ik) and 6,11,4"-tri-O-methyl-azithromycin A (II) in comparison with azithromycin.

[1] = tested on: Bacillus pumilus NCTC 8241; experiment: as above; format: cell-based; settings: NCTC8241, Brain hearth Bouillon, 24-48 hours, 37° C., inoculum 10^-5 -10^-6 cfu/mL
Source text: as §1

[2] = tested on: Pseudomonas aeruginosa NCTC 10490; experiment: as above; format: cell-based; settings: NCTC10490, Brain hearth Bouillon, 24-48 hours, 37° C., inoculum 10^-5 -10^-6 cfu/mL
Source text: as §1

[3] = tested on: Corynebacterium xerosis NCTC 9755; experiment: as above; format: cell-based; settings: NCTC9755, Brain hearth Bouillon, 24-48 hours, 37° C., inoculum 10^-5 -10^-6 cfu/mL
Source text: as §1

[4] = tested on: Bacillus cereus NCTC 10320; experiment: as above; format: cell-based; settings: NCTC10320, Brain hearth Bouillon, 24-48 hours, 37° C., inoculum 10^-5 -10^-6 cfu/mL
Source text: as §1

[5] = tested on: Staphylococcus epidermidis ATCC 12228; experiment: as above; format: cell-based; settings: ATCC12228, Brain hearth Bouillon, 24-48 hours, 37° C., inoculum 10^-5 -10^-6 cfu/mL
Source text: as §1

Sarcina lutea ATCC 9341 = experiment: as above; format: cell-based; settings: Micrococcus luteus, ATCC9341; Brain hearth Bouillon, 24-48 hours, 37° C., inoculum 10^-5 -10^-6 cfu/mL
Source text: as §1

ATCC 8043 = experiment: as above; format: cell-based; settings: Staphylococcus faecalis, ATCC8043; Brain hearth Bouillon, 24-48 hours, 37° C., inoculum 10^-5 -10^-6 cfu/mL
Source text: as §1

[6] = tested on: Bacillus subtilis NCTC 8241; experiment: as above; format: cell-based; settings: Bacillus subtilis, NCTC8241; Brain hearth Bouillon, 24-48 hours, 37° C., inoculum 10^-5 -10^-6 cfu/mL
Source text: as §1

ATCC 10240 = experiment: as above; format: cell-based; settings: Brain hearth Bouillon, 24-48 hours, 37° C., inoculum 10^-5 -10^-6 cfu/mL
Source text: as §1

[7] = tested on: Escherichia coli ATCC 10536; experiment: as above; format: cell-based; settings: ATCC10536, Brain hearth Bouillon, 24-48 hours, 37° C., inoculum 10^-5 -10^-6 cfu/mL
Source text: as §1

[8] = cited from earlier work
[9] = tested on: gram-negative microorganisms; settings: in comparison with the parent antibiotic (erythromycin A); cited from earlier work
[10] = in comparison with the parent antibiotic (erythromycin A); cited from earlier work
[11] = tested on: Klebsiella pneumoniae NCTC-10499; experiment: Antibacterial in vitro activity, tube dilution method (Table 1); format: cell-based; settings: NCTC10499, 24 h
Description: (§2) O-methyl derivatives of azithromycin A of the formulae (Ii)-(Il) and their pharmaceutically acceptable addition salts have a potent antimicrobial activity. The preliminary antibacterial in vitro activity of 6-O-methyl-azithromycin A (Ii) was determined on a series of gram-positiveand gram-negative test bacteria and clinical isolates in comparison with erythromycin A. The assessment was performed by the "tube dilution" method. In the investigation there were used 24-hours cultures in "brain hearth bouillon" of standard strains and freshly isolated strains from a clinical sample.
(§3) Substrate: Brain hearth bouillon
(§4) Incubation: 24 hours, 37° C.
(§5) MIC: Minimal Inhibitory Concentration (μg/mL)
(§6) MBC: Minimal Bactericidal Concentration (μg/mL)

[12] = tested on: Staphilococcus aureus ATCC 6538-P; experiment: as above; format: cell-based; settings: 24 h
Description: as §2, §3, §4, §5, §6

[13] = tested on: Pseudomonas aeruginosa NCTC-10490; experiment: as above; format: cell-based; settings: NCTC10490, 24 h
Description: as §2, §3, §4, §5, §6

[14] = tested on: Streptococcus faecalis ATCC-8043; experiment: as above; format: cell-based; settings: Enterococcus faecalis, ATCC8043, 24 h
Description: as §2, §3, §4, §5, §6

[15] = tested on: Staphylococcus aureus 10097; experiment: Antibacterial in vitro activity against clinical isolates, tube dilution method (Table 2); format: cell-based; settings: clinical isolate, Brain hearth bouillon, 24 hours, 37° C.
Description: as §2, §3, §4, §5
(§7) MBC: Minimal Bactericidal Concentation (μg/mL)

[16] = tested on: Streptococcus pneumoniae 4050; experiment: as above; format: cell-based; settings: clinical isolate, Brain hearth bouillon, 24 hours, 37° C.
Description: as §2, §3, §4, §5, §7

[17] = tested on: Staphylococcus aureus 10099; experiment: as above; format: cell-based; settings: clinical isolate, Brain hearth bouillon, 24 hours, 37° C.
Description: as §2, §3, §4, §5, §7

[18] = tested on: Staphylococcus saprophyticus 3947; experiment: as above; format: cell-based; settings: clinical isolate, Brain hearth bouillon, 24 hours, 37° C.
Description: as §2, §3, §4, §5, §7

[19] = tested on: Streptococcus faecalis 10390; experiment: as above; format: cell-based; settings: Enterococcus faecalis, clinical isolate, Brain hearth bouillon, 24 hours, 37° C.
Description: as §2, §3, §4, §5, §7

[20] = tested on: Haemophylus influenzae 4028; experiment: as above; format: cell-based; settings: clinical isolate, Brain hearth bouillon, 24 hours, 37° C.
Description: as §2, §3, §4, §5, §7

Sarcina lutea ATCC-9341 = experiment: Antibacterial in vitro activity, tube dilution method (Table 1); format: cell-based; settings: Micrococcus luteus, ATCC9341, Brain hearth bouillon, 24 hours, 37° C.
Description: (§8) The preliminary antibacterial in vitro activity of 6-O-methyl-azithromycin A (Ii) was determined on a series of gram-positiveand gram-negative test bacteria and clinical isolates in comparison with erythromycin A. The assessment was performed by the "tube dilution" method. In the investigation there were used 24-hours cultures in "brain hearth bouillon" of standard strains and freshly isolated strains from a clinical sample.

[21] = tested on: Escherichia coli ATCC 10536; experiment: as above; format: cell-based; settings: ATCC10536, Brain hearth bouillon, 24 hours, 37° C.
Description: as §8

[22] = tested on: gram-positive microorganisms; settings: in comparison to erythromycin A; cited from earlier work
[23] = Brain hearth Bouillon, 24-48 hours, 37° C., inoculum 10^-5 -10^-6 cfu/mL, read-out: MIC
[24] = read-out: MBC (Minimal Bactericidal Concentration)
[25] = read-out: MIC (Minimal Inhibitory Concentration)
[26] = read-out: MBC (Minimal Bactericidal Concentation)

Structure (SMILES): CC[C@H]1OC(=O)[C@H](C)[C@@H](O[C@H]2C[C@@](C)(OC)[C@@H](OC)[C@H](C)O2)[C@H](C)[C@@H](O[C@@H]2O[C@H](C)C[C@H](N(C)C)[C@H]2O)[C@](C)(OC)C[C@@H](C)CN(C)[C@H](C)[C@@H](OC)[C@]1(C)O [Il, 6,11,4"Tri-O-Methyl-azithromycin A]
- MIC (ATCC 6538P; [23]): 3.12 µg/mL (≈ 3.95 µM)
- MIC [1]: 3.12 µg/mL (≈ 3.95 µM)
- MIC [2]: 200 µg/mL (≈ 253 µM)
- MIC [3]: 25 µg/mL (≈ 31.6 µM)
- MIC [4]: 3.12 µg/mL (≈ 3.95 µM)
- MIC [5]: 3.12 µg/mL (≈ 3.95 µM)
- MIC (Sarcina lutea ATCC 9341): 0.05 µg/mL (≈ 0.0632 µM)
- MIC (ATCC 8043): 0.78 µg/mL (≈ 0.986 µM)
- MIC [6]: 3.12 µg/mL (≈ 3.95 µM)
- MIC (ATCC 10240): 3.12 µg/mL (≈ 3.95 µM)
- MIC [7]: 6.25 µg/mL (≈ 7.9 µM)

Structure (SMILES): CC[C@H]1OC(=O)[C@H](C)[C@@H](O[C@H]2C[C@@](C)(OC)[C@@H](O)[C@H](C)O2)[C@H](C)[C@@H](O[C@@H]2O[C@H](C)C[C@H](N(C)C)[C@H]2O)[C@](C)(OC)C[C@@H](C)CN(C)[C@H](C)[C@@H](OC)[C@]1(C)O [Ij, 6,11-Di-O-Methyl-azithromycin A]
- MIC (ATCC 6538P; [23]): 1.56 µg/mL (≈ 2.01 µM)
- MIC [1]: 0.78 µg/mL (≈ 1 µM)
- MIC [2]: 100 µg/mL (≈ 129 µM)
- MIC [3]: 12.5 µg/mL (≈ 16.1 µM)
- MIC [4]: 1.56 µg/mL (≈ 2.01 µM)
- MIC [5]: 1.56 µg/mL (≈ 2.01 µM)
- MIC (Sarcina lutea ATCC 9341): 0.05 µg/mL (≈ 0.0643 µM)
- MIC (ATCC 8043): 0.78 µg/mL (≈ 1 µM)
- MIC [6]: 0.78 µg/mL (≈ 1 µM)
- MIC (ATCC 10240): 0.78 µg/mL (≈ 1 µM)
- MIC [7]: 6.25 µg/mL (≈ 8.04 µM)

Structure (SMILES): CC[C@H]1OC(=O)[C@H](C)[C@@H](O[C@H]2C[C@@](C)(OC)[C@@H](O)[C@H](C)O2)[C@H](C)[C@@H](O[C@@H]2O[C@H](C)C[C@H](N(C)C)[C@H]2O)[C@](C)(O)C[C@@H](C)CN(C)[C@H](C)[C@@H](O)[C@]1(C)O [azithromycin, N-methyl-11-aza-10-deoxo-10-dihydroerythromycin A (9-deoxo-9a-aza-9a-methyl-9a-homoerythromycin A)]
- MIC (ATCC 6538P): 1.56 µg/mL (≈ 2.08 µM)
- MIC [1]: 0.2 µg/mL (≈ 0.267 µM)
- MIC [2]: 100 µg/mL (≈ 134 µM)
- MIC [3]: 6.25 µg/mL (≈ 8.34 µM)
- MIC [4]: 0.39 µg/mL (≈ 0.521 µM)
- MIC [5]: 0.1 µg/mL (≈ 0.134 µM)
- MIC (Sarcina lutea ATCC 9341): 0.05 µg/mL (≈ 0.0668 µM)
- MIC (ATCC 8043): 0.05 µg/mL (≈ 0.0668 µM)
- MIC [6]: 0.39 µg/mL (≈ 0.521 µM)
- MIC (ATCC 10240): 0.39 µg/mL (≈ 0.521 µM)
- MIC [7]: 0.78 µg/mL (≈ 1.04 µM)
- stability in acidic medium in comparison with the parent antibiotic ([8]; versus erythromycin A): improved stability in acidic medium
- in vitro activity against gram-negative microorganisms [9]: improved in vitro activity against gram-negative microorganisms
- concentration in the tissues [10]: significantly higher conncentration in the tissues

Structure (SMILES): CC[C@H]1OC(=O)[C@H](C)[C@@H](O[C@H]2C[C@@](C)(OC)[C@@H](O)[C@H](C)O2)[C@H](C)[C@@H](O[C@@H]2O[C@H](C)C[C@H](N(C)C)[C@H]2O)[C@](C)(O)C[C@@H](C)C(=O)[C@H](C)[C@@H](O)[C@]1(C)O [Erythromycin A, reference compound]
- MBC [11, 24]: > 50 µg/mL
- MIC [11, 25]: > 50 µg/mL
- MBC [12, 24]: 0.8 µg/mL (≈ 1.09 µM)
- MIC [12, 25]: 0.2 µg/mL (≈ 0.273 µM)
- MBC [13, 24]: > 50 µg/mL
- MIC [13, 25]: > 50 µg/mL
- MBC [14, 24]: 0.8 µg/mL (≈ 1.09 µM)
- MIC [14, 25]: 0.2 µg/mL (≈ 0.273 µM)
- MBC [15, 26]: 0.4 µg/mL (≈ 0.545 µM)
- MIC [15, 25]: 0.1 µg/mL (≈ 0.136 µM)
- MBC [16, 26]: 0.4 µg/mL (≈ 0.545 µM)
- MIC [16, 25]: 0.1 µg/mL (≈ 0.136 µM)
- MBC [17, 26]: 0.2 µg/mL (≈ 0.273 µM)
- MIC [17, 25]: 0.1 µg/mL (≈ 0.136 µM)
- MBC [18, 26]: 0.8 µg/mL (≈ 1.09 µM)
- MIC [18, 25]: 0.4 µg/mL (≈ 0.545 µM)
- MBC [19, 26]: 3.1 µg/mL (≈ 4.22 µM)
- MIC [19, 25]: 0.8 µg/mL (≈ 1.09 µM)
- MBC [20, 26]: 0.2 µg/mL (≈ 0.273 µM)
- MIC [20, 25]: 0.05 µg/mL (≈ 0.0681 µM)
- MBC (Sarcina lutea ATCC-9341; [24]): 0.4 µg/mL (≈ 0.545 µM)
- MIC (Sarcina lutea ATCC-9341; [25]): 0.2 µg/mL (≈ 0.273 µM)
- MBC [21, 24]: > 50 µg/mL
- MIC [21, 25]: 50 µg/mL (≈ 68.1 µM)
- behaviour in acidic medium ([8]; acidic medium): easily converted into anhydroerythromycin

Structure (SMILES): CC[C@H]1OC(=O)[C@H](C)[C@@H](O[C@H]2C[C@@](C)(OC)[C@@H](O)[C@H](C)O2)[C@H](C)[C@@H](O[C@@H]2O[C@H](C)C[C@H](N(C)C)[C@H]2O)[C@](C)(OC)C[C@@H](C)C(=O)[C@H](C)[C@@H](O)[C@]1(C)O [clarithromycin, 6-O-methyl-erythromycin A]
- in vitro activity against gram-positive microorganisms [22]: improved in vitro activity against gram-positive microorganisms
